Read-outs that look alike come from different tables or passages of the source.
Key:
CAMK2D = CAMK2D (Homo sapiens, UniProt Q13557); conditions: 0.1 µM; binder
BRK = BRK (Homo sapiens, UniProt Q13882); conditions: 0.1 µM; binder
PAK4 = PAK4 (Homo sapiens, UniProt O96013); conditions: 0.1 µM; binder
PIP4K2B = PIP4K2B (Homo sapiens, UniProt P78356); conditions: 0.1 µM; binder
LATS2 = LATS2 (Homo sapiens, UniProt Q9NRM7); conditions: 0.1 µM; binder
PIK3CB = PIK3CB (Homo sapiens, UniProt P42338); conditions: 0.1 µM; binder
FLT3 = biological target: T1, FLT3 (Homo sapiens, UniProt P36888); conditions: 0.1 µM, binder
T1 sequence (P36888 1-993): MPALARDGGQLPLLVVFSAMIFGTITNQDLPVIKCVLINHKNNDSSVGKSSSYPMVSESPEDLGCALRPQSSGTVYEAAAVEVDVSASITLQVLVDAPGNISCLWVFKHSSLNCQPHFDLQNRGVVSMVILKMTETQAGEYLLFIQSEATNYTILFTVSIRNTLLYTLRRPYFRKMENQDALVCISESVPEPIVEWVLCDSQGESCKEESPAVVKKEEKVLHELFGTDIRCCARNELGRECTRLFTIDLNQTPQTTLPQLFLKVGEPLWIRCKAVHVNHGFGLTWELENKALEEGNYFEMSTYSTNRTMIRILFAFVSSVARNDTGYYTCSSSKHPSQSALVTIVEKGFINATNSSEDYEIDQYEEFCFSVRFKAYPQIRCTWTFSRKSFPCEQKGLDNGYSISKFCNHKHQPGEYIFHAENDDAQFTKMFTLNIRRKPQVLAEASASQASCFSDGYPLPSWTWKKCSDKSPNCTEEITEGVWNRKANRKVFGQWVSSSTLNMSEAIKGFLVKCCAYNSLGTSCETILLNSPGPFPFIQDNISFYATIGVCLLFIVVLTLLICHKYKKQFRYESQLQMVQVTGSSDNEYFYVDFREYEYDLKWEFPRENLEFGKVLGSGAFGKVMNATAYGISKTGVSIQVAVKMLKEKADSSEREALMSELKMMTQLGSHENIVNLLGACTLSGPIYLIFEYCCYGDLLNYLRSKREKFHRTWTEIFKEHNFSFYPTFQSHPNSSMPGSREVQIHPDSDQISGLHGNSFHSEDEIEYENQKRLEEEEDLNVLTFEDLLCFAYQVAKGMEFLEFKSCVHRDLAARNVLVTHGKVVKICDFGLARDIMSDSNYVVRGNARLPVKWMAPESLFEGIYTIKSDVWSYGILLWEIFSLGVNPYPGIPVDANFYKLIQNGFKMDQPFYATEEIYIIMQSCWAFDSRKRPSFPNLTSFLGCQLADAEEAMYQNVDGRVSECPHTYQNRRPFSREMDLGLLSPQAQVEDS

MKNK1 = MKNK1 (Homo sapiens, UniProt Q9BUB5); conditions: 0.1 µM; binder
Chain of MKNK1 (Q9BUB5 whole entry): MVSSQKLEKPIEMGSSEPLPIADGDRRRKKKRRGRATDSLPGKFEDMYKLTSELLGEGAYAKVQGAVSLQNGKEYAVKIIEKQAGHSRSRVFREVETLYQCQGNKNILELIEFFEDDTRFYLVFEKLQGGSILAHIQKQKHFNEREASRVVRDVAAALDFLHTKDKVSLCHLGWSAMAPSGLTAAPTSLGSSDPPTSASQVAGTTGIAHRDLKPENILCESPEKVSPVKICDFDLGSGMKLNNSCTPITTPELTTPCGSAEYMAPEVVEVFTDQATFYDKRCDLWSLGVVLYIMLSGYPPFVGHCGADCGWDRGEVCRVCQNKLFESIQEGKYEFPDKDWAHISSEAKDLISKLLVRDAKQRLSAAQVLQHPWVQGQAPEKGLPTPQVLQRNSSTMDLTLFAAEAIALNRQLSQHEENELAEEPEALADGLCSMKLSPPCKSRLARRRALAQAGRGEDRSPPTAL

ACVRL1 = ACVRL1 (Homo sapiens, UniProt P37023); conditions: 0.1 µM; binder
Chain of ACVRL1 (P37023 whole entry): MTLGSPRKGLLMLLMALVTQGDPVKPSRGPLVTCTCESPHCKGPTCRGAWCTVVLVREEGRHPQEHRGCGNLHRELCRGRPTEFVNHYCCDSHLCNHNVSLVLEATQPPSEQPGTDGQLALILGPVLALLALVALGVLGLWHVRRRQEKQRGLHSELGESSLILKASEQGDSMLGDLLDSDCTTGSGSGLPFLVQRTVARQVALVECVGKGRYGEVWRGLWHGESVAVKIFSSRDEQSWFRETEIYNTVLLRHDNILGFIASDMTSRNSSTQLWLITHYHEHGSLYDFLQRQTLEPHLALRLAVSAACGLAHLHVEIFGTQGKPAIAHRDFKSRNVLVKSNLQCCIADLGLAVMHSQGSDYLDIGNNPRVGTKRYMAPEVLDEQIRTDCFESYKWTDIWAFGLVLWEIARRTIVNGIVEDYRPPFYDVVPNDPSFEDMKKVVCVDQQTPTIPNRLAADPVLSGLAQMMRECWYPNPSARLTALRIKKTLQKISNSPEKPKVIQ

PRKD3 = PRKD3 (Homo sapiens, UniProt O94806); conditions: 0.1 µM; binder
HCK = HCK (Homo sapiens, UniProt P08631); conditions: 0.1 µM; binder
SGK = SGK (Homo sapiens, UniProt O00141); conditions: 0.1 µM; binder
CDKL3 = CDKL3 (Homo sapiens, UniProt Q8IVW4); conditions: 0.1 µM; binder
PIP4K2C = PIP4K2C (Homo sapiens, UniProt Q8TBX8); conditions: 0.1 µM; binder
Chain of PIP4K2C (Q8TBX8 whole entry): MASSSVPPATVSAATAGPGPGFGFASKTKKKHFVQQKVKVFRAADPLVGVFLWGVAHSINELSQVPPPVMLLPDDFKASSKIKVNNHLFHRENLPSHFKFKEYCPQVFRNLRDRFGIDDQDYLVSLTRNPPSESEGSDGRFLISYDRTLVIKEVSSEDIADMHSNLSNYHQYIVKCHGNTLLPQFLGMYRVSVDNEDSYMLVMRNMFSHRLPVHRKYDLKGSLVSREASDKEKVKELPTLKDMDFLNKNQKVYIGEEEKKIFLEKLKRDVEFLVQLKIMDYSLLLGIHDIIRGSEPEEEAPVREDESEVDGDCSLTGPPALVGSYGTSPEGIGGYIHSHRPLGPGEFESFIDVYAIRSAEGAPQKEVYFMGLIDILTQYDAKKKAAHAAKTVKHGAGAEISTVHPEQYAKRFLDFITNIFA

EGFR = EGFR (Homo sapiens, UniProt P00533); conditions: 0.1 µM; binder
SIK1 = SIK1 (Homo sapiens, UniProt P57059); conditions: 0.1 µM; binder
PRKCI = PRKCI (Homo sapiens, UniProt P41743); conditions: 0.1 µM; binder
Chain of PRKCI (P41743 whole entry): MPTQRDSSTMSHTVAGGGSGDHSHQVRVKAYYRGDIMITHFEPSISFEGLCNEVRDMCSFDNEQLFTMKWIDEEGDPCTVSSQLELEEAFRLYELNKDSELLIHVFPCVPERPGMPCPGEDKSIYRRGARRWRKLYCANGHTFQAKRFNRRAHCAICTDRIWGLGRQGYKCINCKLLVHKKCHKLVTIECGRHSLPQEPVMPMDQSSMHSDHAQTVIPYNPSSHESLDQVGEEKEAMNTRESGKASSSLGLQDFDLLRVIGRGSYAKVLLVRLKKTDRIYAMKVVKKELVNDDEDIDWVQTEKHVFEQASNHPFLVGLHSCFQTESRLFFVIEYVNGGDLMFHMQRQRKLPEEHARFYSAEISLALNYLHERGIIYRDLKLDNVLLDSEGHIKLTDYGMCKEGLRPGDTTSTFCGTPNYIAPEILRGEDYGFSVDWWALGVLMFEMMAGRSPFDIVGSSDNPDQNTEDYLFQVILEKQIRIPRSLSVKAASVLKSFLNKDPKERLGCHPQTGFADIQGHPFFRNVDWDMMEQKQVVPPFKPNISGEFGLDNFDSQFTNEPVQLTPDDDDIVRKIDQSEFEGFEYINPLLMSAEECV

PIP5K1C = PIP5K1C (Homo sapiens, UniProt O60331); conditions: 0.1 µM; binder
TAOK3 = TAOK3 (Homo sapiens, UniProt Q9H2K8); conditions: 0.1 µM; binder
Chain of TAOK3 (Q9H2K8 whole entry): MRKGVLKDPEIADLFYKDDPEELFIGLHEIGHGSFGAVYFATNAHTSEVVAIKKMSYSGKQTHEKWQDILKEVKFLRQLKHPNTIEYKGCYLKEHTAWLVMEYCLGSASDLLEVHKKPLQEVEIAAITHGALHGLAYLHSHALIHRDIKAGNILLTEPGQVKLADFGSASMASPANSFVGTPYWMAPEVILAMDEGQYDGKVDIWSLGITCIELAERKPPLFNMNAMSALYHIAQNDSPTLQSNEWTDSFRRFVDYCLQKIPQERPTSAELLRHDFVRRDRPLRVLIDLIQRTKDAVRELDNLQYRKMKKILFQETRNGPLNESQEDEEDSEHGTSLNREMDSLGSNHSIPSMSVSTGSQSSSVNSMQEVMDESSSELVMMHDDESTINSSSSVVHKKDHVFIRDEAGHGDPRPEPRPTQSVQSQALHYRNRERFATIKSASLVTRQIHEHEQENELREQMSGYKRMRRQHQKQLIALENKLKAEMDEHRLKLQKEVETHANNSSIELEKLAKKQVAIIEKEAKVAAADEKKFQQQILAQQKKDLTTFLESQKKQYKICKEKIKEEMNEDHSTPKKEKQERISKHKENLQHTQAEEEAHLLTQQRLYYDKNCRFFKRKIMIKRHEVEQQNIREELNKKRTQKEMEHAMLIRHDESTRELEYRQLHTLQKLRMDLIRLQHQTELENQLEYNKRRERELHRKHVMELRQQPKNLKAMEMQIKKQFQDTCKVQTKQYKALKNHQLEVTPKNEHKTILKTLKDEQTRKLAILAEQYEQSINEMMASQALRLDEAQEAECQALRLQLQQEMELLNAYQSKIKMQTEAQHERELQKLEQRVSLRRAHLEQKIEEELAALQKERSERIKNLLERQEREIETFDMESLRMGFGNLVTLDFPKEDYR

CDK3 = CDK3 (Homo sapiens, UniProt Q00526); conditions: 0.1 µM; binder
CSNK2A1 = CSNK2A1 (Homo sapiens, UniProt P68400); conditions: 0.1 µM; binder
MARK3 = MARK3 (Homo sapiens, UniProt P27448); conditions: 0.1 µM; binder

Chain of PIP4K2B (P78356 whole entry): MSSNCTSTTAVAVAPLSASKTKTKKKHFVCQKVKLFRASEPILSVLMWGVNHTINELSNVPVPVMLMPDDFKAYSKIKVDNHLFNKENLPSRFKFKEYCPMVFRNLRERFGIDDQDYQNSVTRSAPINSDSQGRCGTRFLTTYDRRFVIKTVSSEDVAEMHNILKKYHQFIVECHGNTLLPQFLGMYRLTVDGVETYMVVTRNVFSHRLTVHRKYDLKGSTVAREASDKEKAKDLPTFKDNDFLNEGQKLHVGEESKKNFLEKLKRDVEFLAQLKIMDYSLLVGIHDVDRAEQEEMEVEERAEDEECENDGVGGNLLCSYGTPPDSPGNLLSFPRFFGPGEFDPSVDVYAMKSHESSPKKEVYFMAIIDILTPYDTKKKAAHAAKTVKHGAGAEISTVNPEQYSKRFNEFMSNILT
Chain of CAMK2D (Q13557 whole entry): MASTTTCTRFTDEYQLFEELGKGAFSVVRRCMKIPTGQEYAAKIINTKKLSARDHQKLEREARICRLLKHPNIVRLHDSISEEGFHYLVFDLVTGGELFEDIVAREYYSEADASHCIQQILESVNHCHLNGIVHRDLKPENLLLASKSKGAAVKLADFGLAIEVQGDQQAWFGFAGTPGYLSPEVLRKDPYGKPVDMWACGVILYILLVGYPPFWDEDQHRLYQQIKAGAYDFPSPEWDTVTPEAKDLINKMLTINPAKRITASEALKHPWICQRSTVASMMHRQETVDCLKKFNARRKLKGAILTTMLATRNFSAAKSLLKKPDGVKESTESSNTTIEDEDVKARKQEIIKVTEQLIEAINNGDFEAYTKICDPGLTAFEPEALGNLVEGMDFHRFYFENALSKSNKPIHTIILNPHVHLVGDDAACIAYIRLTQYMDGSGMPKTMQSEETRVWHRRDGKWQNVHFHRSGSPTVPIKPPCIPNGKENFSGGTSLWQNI
Chain of LATS2 (Q9NRM7 whole entry): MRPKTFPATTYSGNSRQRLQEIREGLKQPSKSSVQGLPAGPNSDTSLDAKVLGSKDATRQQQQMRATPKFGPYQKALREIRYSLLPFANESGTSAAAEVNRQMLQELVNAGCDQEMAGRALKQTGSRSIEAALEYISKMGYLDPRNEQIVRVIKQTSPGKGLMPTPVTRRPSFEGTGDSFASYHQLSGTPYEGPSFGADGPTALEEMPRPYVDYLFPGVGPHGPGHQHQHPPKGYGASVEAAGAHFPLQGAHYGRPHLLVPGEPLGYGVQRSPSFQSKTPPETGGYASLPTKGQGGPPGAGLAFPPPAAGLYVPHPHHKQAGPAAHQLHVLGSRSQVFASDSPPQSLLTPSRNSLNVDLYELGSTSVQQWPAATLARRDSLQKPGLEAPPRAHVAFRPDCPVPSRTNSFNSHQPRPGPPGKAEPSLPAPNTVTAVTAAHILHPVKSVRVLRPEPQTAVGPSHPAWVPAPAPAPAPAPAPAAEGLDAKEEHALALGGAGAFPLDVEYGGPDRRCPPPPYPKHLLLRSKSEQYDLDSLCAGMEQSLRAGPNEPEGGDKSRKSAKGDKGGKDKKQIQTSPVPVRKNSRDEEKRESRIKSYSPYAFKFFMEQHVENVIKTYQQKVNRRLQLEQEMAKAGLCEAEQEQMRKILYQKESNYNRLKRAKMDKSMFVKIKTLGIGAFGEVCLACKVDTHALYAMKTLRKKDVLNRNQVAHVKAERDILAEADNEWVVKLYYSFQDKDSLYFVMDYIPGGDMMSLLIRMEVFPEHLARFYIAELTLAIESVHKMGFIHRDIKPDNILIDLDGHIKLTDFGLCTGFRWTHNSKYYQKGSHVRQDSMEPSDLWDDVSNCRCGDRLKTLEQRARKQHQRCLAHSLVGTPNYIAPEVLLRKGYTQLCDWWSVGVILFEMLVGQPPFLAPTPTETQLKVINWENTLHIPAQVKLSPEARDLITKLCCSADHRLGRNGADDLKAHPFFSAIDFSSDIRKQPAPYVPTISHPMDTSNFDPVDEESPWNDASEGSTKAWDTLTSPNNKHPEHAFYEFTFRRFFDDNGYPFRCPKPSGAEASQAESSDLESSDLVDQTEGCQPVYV

## CNc1ncc2cc(-c3ccc(-c4cccc(C)n4)cc3Cl)c(=O)n(C[C@H]3OC[C@H](N)CO3)c2n1 [compound 6, G-5555]
CAMK2D
  Percent Control: 100%
BRK
  Percent Control: 100%
PAK4
  Percent Control: 100%
PIP4K2B
  Percent Control: 68%
LATS2
  Percent Control: 58%
PIK3CB
  Percent Control: 100%
FLT3
  Percent Control: 100%
FLT3; autoinhibited
  Percent Control: 94%
MKNK1
  Percent Control: 100%
ACVRL1
  Percent Control: 100%
PRKD3
  Percent Control: 95%
HCK
  Percent Control: 100%
SGK
  Percent Control: 99%
CDKL3
  Percent Control: 89%
PIP4K2C
  Percent Control: 79%
EGFR
  Percent Control: 100%
SIK1
  Percent Control: 1.4%
PRKCI
  Percent Control: 97%
PIP5K1C
  Percent Control: 100%
TAOK3
  Percent Control: 100%
CDK3
  Percent Control: 100%
CSNK2A1
  Percent Control: 88%
MARK3
  Percent Control: 45%
